Measured values from article PMC5522529, “Mechanisms of Paradoxical Activation of AMPK by the Kinase Inhibitors SU6656 and Sorafenib” (Cell Chemical Biology, 2017).

Columns and labels:
LKB1 = target: T1, LKB1 (Homo sapiens, UniProt Q15831); experiment: LKB1 assay using LKBtide peptide substrate; format: biochemical; details: alternative peptide substrate (LKBtide)
T1 construct: made in house; host or cells: Sf9 cells
Procedure: We next used unphosphorylated α2-KD and tested the effect of SU6656 on its activation and phosphorylation by LKB1. […] There was no effect of SU6656 when LKB1 was assayed using an alternative peptide substrate (Figure S3), confirming that it acts by binding to AMPK rather than to LKB1. The half-maximal effect of SU6656 on α2-KD activation was at 0.20 ± 0.02 μM, close to the IC50 for inhibition of catalytic activity (0.22 ± 0.02 μM).
Endogenous AMPK was immunoprecipitated using the specified antibodies (for total AMPK, an equal mixture of anti-α1 and –α2 antibodies) and assayed at 200 μM ATP ([Hardie et al., 2000], [Towler et al., 2008]) using the AMARA peptide ([Dale et al., 1995]) as substrate, except for assays of allosteric activation by AMP (Figure 5A) where the SAMS peptide was used as substrate with 2 mM ATP ([Gowans et al., 2013]). The AMPK-related kinases SIK1, SIK2, SIK3, SNARK, MARK2/3 and MARK4 were immunoprecipitated and assayed as previously described ([Lizcano et al., 2004]) in lysates of Hela cells stably expressing LKB1 ([Fogarty et al., 2010]). LKB1 was assayed using the LKBtide peptide as substrate ([Sakamoto et al., 2004]).
LKB1 was assayed using the LKBtide peptide as substrate as
described in the Star Methods section.

α2β2γ1 complex = target: T2, α2β2γ1 complex (Homo sapiens, UniProt P54619+P54646); experiment: Inactivation of full-length α2β2γ1 complex by PP2Cα; format: biochemical; details: 5 mM ATP, AMP 2 mM, SU6656 up to 10 μM
T2 construct: bacterially expressed α2-KD or a full-length α2β2γ1 complex, both of which had been phosphorylated using CaMKK2; made in house; host or cells: bacteria

AMPK [1] = experiment: AMPK activity in HeLa cells stably expressing LKB1; format: cell-based, human; details: HeLa cells expressing LKB1, 100 μM, 1 hr
Procedure: Figure 1 SU6656 Activates AMPK but Not AMPK-Related Kinases (A) HEK293 cells were incubated with the indicated concentrations of SU6656 or berberine (300 μM) for 1 hr; total AMPK activity was assayed in immunoprecipitates (top; mean ± SEM, n = 4), and phosphorylation of AMPK (Thr172), ACC (Ser80), and Raptor (Ser792) analyzed by western blotting (bottom; n = 2). (B) HEK293 cells were incubated with 100 μM SU6656 (1 hr), AMPK complexes containing α1, α2, β1, and β2 immunoprecipitated using isoform-specific antibodies, and AMPK activity measured (mean ± SEM, n = 4). (C) HeLa cells stably expressing LKB1 ([Fogarty et al., 2010]) were incubated with 100 μM SU6656 for 1 hr, AMPK or individual ARKs immunoprecipitated, and kinase assays carried out (antibodies that distinguish MARK2/MARK3 were not available, so they were assayed together). Results are means ± SEM (n = 2). In all panels, asterisks indicate significant differences from controls without SU6656. *p < 0.05, **p < 0.01, ****p < 0.0001. […]

AMPK [2] = experiment: AMPK activation in HeLa cells transfected with GFP-LKB1 WT, FF or FFF mutants; format: cell-based, human; details: HeLa cells expressing GFP-LKB1 WT, not with GFP control
Procedure: Top: AMPK activity (mean ± SEM, n = 4); bottom: western blots showing phosphorylation of Thr172 on AMPK, and of ERK1/2, in cells treated with DMSO (control), SU6656 (100 μM), or PP2 (100 nM) (n = 2). (B) As (A), but in SYF cells. (C) HeLa cells were transfected with DNAs encoding GFP alone, or GFP fused to WT, Y261F/Y365F (FF), or Y36F/Y261F/Y365F (FFF) mutants of LKB1; cells were treated with increasing concentrations of SU6656 for 1 hr and AMPK activity determined (mean ± SEM, n = 4). See also Figure S1. (D) HEK293 cells were transfected with DNAs encoding FLAG-tagged AMPK-α2 with or without a Y436F mutation. Cells were incubated with DMSO (control), 100 μM SU6656, 10 mM phenformin, or 10 μM A23187 for 1 hr; AMPK complexes were immunoprecipitated using anti-FLAG antibody and assayed. The top panels show kinase activities (mean ± SD, n = 3); the bottom panels show blots from the same experiment (n = 2). In all panels, asterisks indicate significant differences from DMSO controls; in (D), there were no significant differences between the WT and Y463F mutant. **p < 0.01, ****p < 0.0001.
We next transiently transfected DNAs encoding GFP, or GFP-tagged wild-type (WT), Y261F/Y365F (FF), or Y36F/Y261F/Y365F (FFF) mutants of LKB1 into HeLa cells, which lack endogenous LKB1.

Raptor = Raptor phosphorylation in HEK293 cells (western blot); format: cell-based, human; details: 1 hr
Procedure: Figure 1 SU6656 Activates AMPK but Not AMPK-Related Kinases (A) HEK293 cells were incubated with the indicated concentrations of SU6656 or berberine (300 μM) for 1 hr; total AMPK activity was assayed in immunoprecipitates (top; mean ± SEM, n = 4), and phosphorylation of AMPK (Thr172), ACC (Ser80), and Raptor (Ser792) analyzed by western blotting (bottom; n = 2). (B) HEK293 cells were incubated with 100 μM SU6656 (1 hr), AMPK complexes containing α1, α2, β1, and β2 immunoprecipitated using isoform-specific antibodies, and AMPK activity measured (mean ± SEM, n = 4). (C) HeLa cells stably expressing LKB1 ([Fogarty et al., 2010]) were incubated with 100 μM SU6656 for 1 hr, AMPK or individual ARKs immunoprecipitated, and kinase assays carried out (antibodies that distinguish MARK2/MARK3 were not available, so they were assayed together). Results are means ± SEM (n = 2). In all panels, asterisks indicate significant differences from controls without SU6656. *p < 0.05, **p < 0.01, ****p < 0.0001.
SDS-PAGE was performed using precast Bis-Tris 4–12% gradient polyacrylamide gels in the MOPS buffer system (ThermoFisher Scientific). Proteins were transferred to nitrocellulose membranes using the iBlot 2 system (ThermoFisher Scientific). […] Protein concentrations were determined by Coomassie Blue binding with bovine serum albumin as standard ([Bradford, 1976]). […]

T2 sequence (P54646 whole entry): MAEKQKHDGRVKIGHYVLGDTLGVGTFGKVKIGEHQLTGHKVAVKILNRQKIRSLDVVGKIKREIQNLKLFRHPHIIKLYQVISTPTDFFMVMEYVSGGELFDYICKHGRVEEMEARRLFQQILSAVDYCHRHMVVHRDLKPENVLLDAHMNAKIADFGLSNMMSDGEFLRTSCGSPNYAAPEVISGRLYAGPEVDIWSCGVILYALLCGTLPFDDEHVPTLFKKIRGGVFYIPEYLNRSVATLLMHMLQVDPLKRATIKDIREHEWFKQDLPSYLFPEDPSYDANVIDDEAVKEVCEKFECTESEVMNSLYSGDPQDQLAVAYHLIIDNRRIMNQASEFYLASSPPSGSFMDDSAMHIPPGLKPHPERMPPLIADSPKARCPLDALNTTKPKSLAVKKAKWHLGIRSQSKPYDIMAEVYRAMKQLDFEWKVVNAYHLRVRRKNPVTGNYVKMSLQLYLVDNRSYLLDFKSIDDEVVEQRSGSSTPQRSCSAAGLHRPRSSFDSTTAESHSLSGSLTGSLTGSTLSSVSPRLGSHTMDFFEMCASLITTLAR
T2 sequence (O43741 whole entry partner): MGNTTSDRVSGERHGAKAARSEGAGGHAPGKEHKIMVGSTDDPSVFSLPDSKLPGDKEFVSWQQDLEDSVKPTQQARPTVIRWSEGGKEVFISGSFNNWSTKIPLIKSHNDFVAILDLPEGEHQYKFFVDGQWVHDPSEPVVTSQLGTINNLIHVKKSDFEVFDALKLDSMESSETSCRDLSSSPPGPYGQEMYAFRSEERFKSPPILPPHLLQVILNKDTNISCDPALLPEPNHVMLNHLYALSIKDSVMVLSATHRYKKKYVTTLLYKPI
T2 sequence (P54619 whole entry): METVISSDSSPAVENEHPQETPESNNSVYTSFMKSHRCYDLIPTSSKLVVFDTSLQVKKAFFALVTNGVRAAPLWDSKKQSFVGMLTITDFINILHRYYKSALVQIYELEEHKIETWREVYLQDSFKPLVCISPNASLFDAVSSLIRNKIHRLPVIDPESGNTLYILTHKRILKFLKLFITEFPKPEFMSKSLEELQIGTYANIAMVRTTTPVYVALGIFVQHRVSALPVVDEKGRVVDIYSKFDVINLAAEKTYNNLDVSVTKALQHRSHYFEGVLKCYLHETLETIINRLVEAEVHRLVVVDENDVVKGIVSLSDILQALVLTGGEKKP
T1 sequence (Q15831 whole entry): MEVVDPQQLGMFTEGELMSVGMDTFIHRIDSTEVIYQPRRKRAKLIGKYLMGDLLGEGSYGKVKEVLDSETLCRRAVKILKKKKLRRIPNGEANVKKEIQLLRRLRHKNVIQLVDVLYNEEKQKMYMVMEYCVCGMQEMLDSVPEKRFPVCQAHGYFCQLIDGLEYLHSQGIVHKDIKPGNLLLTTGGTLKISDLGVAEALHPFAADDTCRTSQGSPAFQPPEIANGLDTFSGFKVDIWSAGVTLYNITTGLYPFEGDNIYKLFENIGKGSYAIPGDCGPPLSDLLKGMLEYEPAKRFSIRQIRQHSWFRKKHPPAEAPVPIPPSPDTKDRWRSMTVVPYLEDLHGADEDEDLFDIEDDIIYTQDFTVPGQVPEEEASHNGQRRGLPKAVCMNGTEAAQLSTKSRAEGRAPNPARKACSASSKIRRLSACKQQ
T1 sequence (Q7RTN6 whole entry partner): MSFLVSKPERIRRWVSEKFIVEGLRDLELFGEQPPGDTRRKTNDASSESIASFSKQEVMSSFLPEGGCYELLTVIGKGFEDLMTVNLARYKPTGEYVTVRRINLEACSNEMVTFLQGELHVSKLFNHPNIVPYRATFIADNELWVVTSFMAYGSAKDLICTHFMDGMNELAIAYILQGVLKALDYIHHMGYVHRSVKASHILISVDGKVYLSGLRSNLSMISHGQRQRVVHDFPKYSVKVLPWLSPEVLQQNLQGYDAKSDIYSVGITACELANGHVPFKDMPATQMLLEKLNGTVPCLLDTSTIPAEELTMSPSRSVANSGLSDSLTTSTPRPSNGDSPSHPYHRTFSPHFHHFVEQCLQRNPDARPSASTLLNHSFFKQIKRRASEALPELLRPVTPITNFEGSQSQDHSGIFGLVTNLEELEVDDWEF
T1 sequence (Q9Y376 whole entry partner): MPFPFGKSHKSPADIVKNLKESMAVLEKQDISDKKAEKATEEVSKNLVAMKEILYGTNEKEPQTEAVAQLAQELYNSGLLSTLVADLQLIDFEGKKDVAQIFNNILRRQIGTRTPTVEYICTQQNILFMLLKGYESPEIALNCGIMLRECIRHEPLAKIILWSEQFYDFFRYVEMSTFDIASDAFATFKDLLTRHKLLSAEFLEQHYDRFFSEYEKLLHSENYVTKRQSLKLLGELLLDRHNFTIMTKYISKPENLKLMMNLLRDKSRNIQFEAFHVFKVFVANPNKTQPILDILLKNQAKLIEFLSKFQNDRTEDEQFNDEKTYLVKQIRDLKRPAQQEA

## CN(C)S(=O)(=O)c1ccc2c(c1)/C(=C/c1cc3c([nH]1)CCCC3)C(=O)N2 [SU6656]
LKB1
  effect on LKB1 activity: no effect
α2β2γ1 complex
  protection against inactivation by PP2Cα: did not protect against inactivation
AMPK [1]
  AMPK activity: robustly activated AMPK
AMPK [2]
  AMPK activation and Thr172 phosphorylation: equally in cells expressing the WT, FF, or FFF mutants

## COc1ccc2cc3[n+](cc2c1OC)CCc1cc2c(cc1-3)OCO2 [berberine]
Raptor
  Raptor phosphorylation: did promote Raptor phosphorylation
